Measurements taken from patent publication US20230000885A1, “Methods of Treating Psychological and Brain Disorders” (University of Maryland, Baltimore, priority 2019, published 2023).
“Also recorded” adds a separate entry of the source.

What was measured:
male C57BI/6J mice [1] = test: locomotion (video, Any-maze) after injection; type: in vivo; conditions: ketanserin 2 mg/kg pretreatment, recorded 90 minutes after second injection, with or without psilocybin
male C57BI/6J mice [2] = test: sucrose preference test (SPT) after chronic multimodal stress (CMMS); type: in vivo; conditions: stress-susceptible CMMS mice; ketanserin 2 mg/kg alone (ketanserin-vehicle); vs values after CMMS
5-HT2Rs = conditions: cited from earlier work
male C57BI/6J mice [3] = test: female urine sniff test (FUST) after chronic multimodal stress; type: in vivo; conditions: stress-susceptible CMMS mice; ketanserin 2 mg/kg alone; vs values after CMMS
5-HT1BRs = 5-HT1BRs (Homo sapiens, UniProt P28222); conditions: cited from earlier work
5-HT1BRs, sequence (P28222 whole entry): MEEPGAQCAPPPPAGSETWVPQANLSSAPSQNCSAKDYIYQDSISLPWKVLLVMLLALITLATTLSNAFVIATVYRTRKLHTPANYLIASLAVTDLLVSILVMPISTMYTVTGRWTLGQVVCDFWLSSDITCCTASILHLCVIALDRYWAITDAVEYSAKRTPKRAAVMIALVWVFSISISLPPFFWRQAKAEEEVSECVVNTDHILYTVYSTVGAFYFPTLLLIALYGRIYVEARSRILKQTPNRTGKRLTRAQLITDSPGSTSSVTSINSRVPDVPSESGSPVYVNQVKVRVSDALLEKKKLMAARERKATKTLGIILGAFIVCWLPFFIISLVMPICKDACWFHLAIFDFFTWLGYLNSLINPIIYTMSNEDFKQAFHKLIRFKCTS

5-HTRs = conditions: read-out: affinities at almost all 5-HTRs; cited from earlier work

O=C(c1ccc(F)cc1)C1CCN(CCn2c(=O)[nH]c3ccccc3c2=O)CC1 [ketanserin, Ketanserin]
time mobile / mobility (male C57BI/6J mice [1]): significant effect of ketanserin
total distance travelled (male C57BI/6J mice [1]): main effect of ketanserin
time mobile / mobility (male C57BI/6J mice [1]; listed as Ketanserin): significant increase in mobility
sucrose preference (SP) (male C57BI/6J mice [2]): no significant effect on either behavior
acute psilocybin-induced changes in processing of negative emotional stimuli (5-HT2Rs; healthy subjects): prevented
psilocybin-induced self-reported perceptual distortions (5-HT2Rs; humans, ketanserin block of 5-HT2Rs): significantly attenuates self-reported perceptual distortions; also recorded: attenuates psilocybin-induced perceptual alterations
preference for female urine (male C57BI/6J mice [3]): nor ketanserin alone (p=0.072; n=4) had a significant effect; also recorded: no significant effect on either behavior

CN(C)CCc1c[nH]c2cccc(O)c12 [Psilocin]
affinity for 5-HT1BRs (5-HT1BRs): high affinity
Ki (5-HTRs): 3 to 500 nM
